Experiments:
[1] = test system: Staphylococcus aureus (ATCC#14775); experiment: Murine systemic bacteremia model, 30-day survival; type: in vivo, mice; conditions: for in vivo effect on survival (in words): mice infected with 5xLD50, daily gavage 30 days; for mice surviving for 30 days (survivors/group): second study, groups of eight, 3.2 mg of each agent by gavage, vancomycin 400 μg i.p.; for mice surviving thirty days (survivors/total): summary across the in vivo studies
Protocol: Female BALB/c mice (about 15 grams to 20 grams in weight) were obtained from Taconic Farms (Germantown, N.Y.). The mice were maintained in a controlled environment at about 24° C. with a 12-hour light and 12-hour dark cycle and were acclimatized in the animal facility for about 3-5 days before testing. The mice were housed in groups of five, fed commercial rodent pellets, and given water ad libitum throughout the experiments. The Animal Welfare Board at Georgetown University Medical Center approved the protocol for the entire investigation.
In two separate experiments, groups of mice (6 and 8 respectively) infected with Staphylococcus aureus (5×LD50) were gavaged daily with oregano oil, carvacrol, monolaurin or combined oregano oil-monolaurin in 0.2 ml of olive oil for 30 days. The amount of bacterial agents administered was calculated based on the body weight of the mice. Control mice received daily gavages of either olive oil alone (negative control) or olive oil orally plus vancomycin (400 mcg) i.p. (positive control).
In the first in vivo experiment, the daily dose of oregano oil was either 2.0 μl (1.6 mg) or 4.0 μl (3.2 mg). […] In the second in vivo study, the daily dose of oregano oil was the same as the higher dose used before, i.e., 4.0 μl (3.2 mg). Monolaurin was given at the same dose; and when both agents were combined, the same individual doses were used, i.e., 3.2 mg of each. Both experiments were terminated at the end of 30 days. The body weight, the disease status, and the overall health of the mice during the experiments were recorded. The pathological status of the mice was determined by visual examination of the internal organs after their death or sacrifice at the completion of the experiment. Culturing aliquots of kidney homogenates on S.g. agar plates were tested for the renal burden of Staphylococcus aureus.
Furthermore, the in vivo therapeutic effects of the natural edible oregano oil and one of its major constituents, carvacrol, were examined in a murine systemic bacteremia model. […] Groups of six mice infected with Staphylococcus aureus (ATCC#14775) (5×LD50) were gavaged with varying amounts of oregano oil (2.0 μl 1.6 mg; and 4.0 μl 3.2 mg) or injected i.p. with vancomycin (400 μg) daily for 30 days. […] Fifty percent of the mice (3/6) receiving oregano oil (3.2 mg) survived over the thirty days, while only one of six receiving 1.6 mg oregano oil survived for 30 days. Also, 50% of those receiving vancomycin (400 μg) survived for 30 days, while all in the control group died within a three-day period. […] In contrast, numerous abscesses were noted and renal cultures were positive in all dying mice.
In a separate in vivo study, the effects of using monolaurin, either alone and in combination with oregano oil, were investigated and compared to the effects of oregano oil alone. Groups of eight mice were infected with five times the LD50 (5×LD50) of Staphylococcus aureus (A TIC #14775). Fifty percent of the mice (4/8) injected daily with vancomycin (400 μg i.p.) survived for the thirty days of study in contrast to the control group where all eight mice died within a week's time. In the three test groups, 3/8 survived for 30 days in the oregano oil group (3.2 mg), 4/8 survived in the monolaurin group (3.2 mg), and 5/8 survived in the group receiving the combination of oregano oil (3.2 mg) and monolaurin (3.2 mg). No abscesses were seen on inspection, and no bacterial growth was found in the kidney tissue of the 30-day survivors.

[2] = test system: Staphylococcus aureus (ATCC#14775); experiment: Micro-broth dilution susceptibility testing (MIC/MBC); type: cell-based; conditions: for killing of Staphylococcus aureus in vitro (summary): summary statement
Protocol: (§1) A micro-broth dilution technique was used to determine the susceptibility of the strains of Staphylococcus aureus. Susceptibility was expressed as minimum inhibitory (MIC) and/or minimum bactericidal (MBC) concentration.
(§2) Various essential oils, carvacrol, and monolaurin were tested alone or in combination for the treatment of Staphylococcus aureus infection. Twelve essential oils were tested in the study: oregano oil, olive oil (the diluent), pumpkin oil, fenugreek oil, myrtle oil, allspice oil, sage oil, lavender oil, bay leaf oil, cumin oil, cinnamon oil, and cassia oil.
(§3) The stock solutions of oregano oil, other essential oils, olive oil, and carvacrol were dissolved in 50% ethanol-Tween 80 solvents. Antibiotics were dissolved in 50% ethanol and used as positive controls. Solvent controls (addition of carrier without essential oil and monolaurin) were also included for reference in addition to regular controls.
(§4) The Sabouraud's glucose (S.g.) broth containing varying amounts (logarithmic, serially and 2-fold diluted) of oregano oil, other essential oils, carvacrol, monolaurin and various controls were inoculated with actively dividing Staphylococcus aureus cells. The cultures were incubated for about 24 hours and about 48 hours at a temperature of about 30° C. on a metabolic rotary shaker (220 rev/min), and the growth was monitored both visually and colorimetrically (at a wavelength of about […]). The minimum inhibitory concentration (MIC) was defined as the lowest concentration required to arrest the growth of the bacteria at the end of 24 hour of incubation. Minimum bactericidal concentration (MBC) was determined by sub-culturing a 0.01 ml aliquot of the medium drawn from the culture tubes after 48 hours on S.g. agar plates and incubated further for bacterial growth. The plates were scored for growth of the bacteria colonies. The lowest concentration of the antimicrobial agent causing negative growth (fewer than three colonies) was considered as MBC. In every case, the MIC and MBC were virtually the same.
The micro dilution study was performed with another strain of Staphylococcus aureus (ATCC#14775). Although the results from the two strains (ATCC#14775 and ATCC#14154) were generally similar, there were some minor differences. […] Oregano oil provided efficacy against the ATCC#14775 strain infections at the concentration as low as 0.25 mg oregano oil. Carvacrol provided efficacy against the ATCC#14775 strain infections at a phenol content equivalent to that in 0.5 mg oregano oil.
The in vitro experiment on Staphylococcus aureus (ATCC#14775) was performed to investigate the efficacy of using monolaurin alone, using monolaurin in combination with oregano oil, or using oregano oil alone.

[3] = test system: Staphylococcus aureus (ATCC#14154); experiment: as above; type: cell-based; conditions: for effect against Staphylococcus aureus (in words): ATCC#14154, grown in broth over 48 hours
Protocol: as §1, §2, §3, §4
A micro dilution study on Staphylococcus aureus (ATCC#14154) grown in broth over 48 hours was performed to determine the comparative effects of various antibiotics and essential oils against Staphylococcus aureus infection at the selected concentrations.

Row | Compound | in vivo effect on survival (in words) [1] | killing of Staphylococcus aureus in vitro (summary) [2] | mice surviving for 30 days (survivors/group) [1] | mice surviving thirty days (survivors/total) [1] | effect against Staphylococcus aureus (in words) [3] | also measured
1 | Cc1ccc(C(C)C)cc1O [carvacrol] | prolonged survival | killed Staphylococcus aureus effectively in vitro |  |  |  | survival time (none survived beyond) ([1]; first experiment, twelve mice, two doses equivalent to phenol content in 1.6 mg and 3.2 mg oregano oil): ≤ 21 days; renal culture after death ([1]; first in vivo study, carvacrol at phenol-equivalent doses): Staphylococcus aureus was grown out of their kidneys; in vivo effect on survival (in words) ([1]; listed as Carvacrol): delayed death but could not cure the mice; effective phenol content, as equivalent amount of oregano oil ([2]; ATCC#14775, carvacrol expressed as oregano oil equivalent): 0.5 mg; effective concentration, as comparable dose of oregano oil (phenol content) ([3]; ATCC#14154, carvacrol expressed as oregano oil equivalent): 0.5 mg; phenol content needed for the same efficacy as oregano oil ([3]; relative to one oregano oil dosage, strain not specified): twice the phenol content
2 | CCCCCCCCCCCC(=O)OCC(O)CO (stereo not shown) [monolaurin, glycerol monolaurate] | protective effect | killed Staphylococcus aureus effectively in vitro | 4/8 | 4/8 |  | growth after two days of incubation ([2]; ATCC#14775, 0.125 mg of each agent): A few Staphylococcus aureus (ATCC#14775) colonies grew
3 | CN[C@H](CC(C)C)C(=O)N[C@H]1C(=O)N[C@@H](CC(N)=O)C(=O)N[C@H]2C(=O)N[C@H]3C(=O)N[C@H](C(=O)N[C@H](C(=O)O)c4cc(O)cc(O)c4-c4cc3ccc4O)[C@H](O)c3ccc(c(Cl)c3)Oc3cc2cc(c3O[C@@H]2O[C@H](CO)[C@@H](O)[C@H](O)[C@H]2O[C@H]2C[C@](C)(N)[C@H](O)[C@H](C)O2)Oc2ccc(cc2Cl)[C@H]1O [vancomycin] |  |  | 4/8 | 7/14 | completely destroyed the bacteria | mice surviving for 30 days ([1]; first experiment, groups of six, 400 μg i.p. daily): 50%
4 | penicillin |  |  |  |  | essentially showed no effect | 
5 | [H]/N=C(/N)N[C@H]1[C@H](O)[C@@H](O)[C@H](O[C@@H]2O[C@@H](C)[C@](O)(C=O)[C@H]2O[C@@H]2O[C@@H](CO)[C@H](O)[C@@H](O)[C@@H]2NC)[C@@H](N/C(N)=N\[H])[C@@H]1O [Streptomycin, streptomycin] |  |  |  |  | did not completely kill the bacteria | 

Reference: patent US11109607B2, “Oil-based compositions for enhancing oral health and general wellness in humans” (priority 2013, dated 2021)
